The data set is described as follows: logP by HPLC on reversed-phase columns (C 18), EEC Directive 79/831 Annex V.A8. Format: physicochemical.
The mark [1] stands for this setting: method marker [a], footnote not given.
Where [2] appears, read: values marked [b], footnote not given.
The mark [3] stands for this setting: reversed-phase HPLC column (C 18), pH 2.3, pH 2.3, 0.1% aqueous phosphoric acid and acetonitrile, read-out: logP [a].
Setting [4] is: method marker [b], footnote not given, compound 68 value matches logP (pH 2.3).
The mark [5] stands for this setting: values marked [c], footnote not given.
[6] abbreviates: method marker [b] (compound 257: pH2.7).

Like-named read-outs stand apart in the source and are kept apart here.

`Clc1ncc(Cl)c(NC2CCCC2)n1` [Example V-12, 2,5-dichloro-N-(cyclopentyl)pyrimidine-4-amine]: under “pH 2.3, logP [a]”, the chromatographic logP amounted to 3.16. Regarding `CCN(CC)c1ccc(Nc2ncc(Cl)c(NC3CCCCC3)n2)cc1` [Example 265], the logP (method marker [a]) is 1.69[a]. For `CNc1nc(Nc2ccc(S(=O)(=O)N(C)C)cc2)ncc1Cl` [Example 26], the logP under setting [1] was 1.61[a].

For the molecule `COCC(C)Nc1nc(Nc2ccc(C(=O)Nc3ccccc3)cc2)ncc1Br` (racemic) [Example 126], the logP under setting [2] was 1.92[b].

Regarding `CC(C)N(C)S(=O)(=O)Cc1cccc([N+](=O)[O-])c1` [IV-2, N-methyl-N-(propan-2-yl)-1-(3-nitrophenyl)methanesulphonamide], the chromatographic logP under setting [3] was 2.35. As for `COCC(C)Nc1nc(Nc2ccc(O)nc2)ncc1Br` (centres unmarked) [II-4], under “pH 2.3, 0.1% aqueous phosphoric acid and acetonitrile”, the “logP [a]” value is 0.58[a]. For the molecule `COCC(C)Nc1nc(Nc2ccc3c(c2)CCC3=O)ncc1Cl` (centres unmarked) [Example 103], the logP under setting [4] is 1.97[b].

As for `CSc1cccc(Nc2ncc(Cl)c(N(C)C(C)C)n2)c1` [Example 219], the logP (values marked [a], pH 2.3) is 3.45[a]; and the logP under setting [5] was 4.64[c]. Regarding `CC(=O)Nc1cccc(Nc2ncc(Cl)c(NC(C)C)n2)c1` [Example 195], the logP under setting [2] is 1.39[b].

For the molecule `CCC(CO)Nc1nc(Nc2cccc(C(C)=O)c2)ncc1Cl` (centres unmarked) [Example 21], the logP under setting [1] was 1.53[a]. Take `CC(C)c1cccc(Nc2ncc(C(F)(F)F)c(NC3CCCC3)n2)c1` [Example 257, N^4-Cyclopentyl-N^2-[3-(propan-2-yl)phenyl]-5-(trifluoromethyl)pyrimidine-2,4-diamine]: the chromatographic logP came to 5.08 (reversed-phase HPLC column (C 18), pH 2.7, LC-MS, pH 2.7, 0.1% aqueous formic acid and acetonitrile, read-out: logP [b]); 5.08 (reversed-phase HPLC column (C 18), pH 2.7, method marker [b] (compound 257: pH2.7), read-out: logP). In the case of `CCCNc1nc(Cl)ncc1Cl` [Example V-21, 2,5-dichloro-N-propylpyrimidine-4-amine], under setting [3], the chromatographic logP amounted to 2.75.

As for `CC(C)Nc1nc(Nc2cccc(CS(=O)(=O)N(C)C)c2)ncc1Cl` [Example 250], the logP is 1.69[b] under setting [6] and 2.85[c]; (method marker [c]). For `CC(C)Nc1nc(Nc2ccc(SC(F)F)cc2)ncc1Cl` [Example 212], the logP under setting [2] is 2.88[b].

Consider `COCC(C)Nc1nc(Nc2ccc(CC(=O)C(C)(C)C)cc2)ncc1Cl` (centres unmarked) [Example 151], for which the logP under setting [2] was 2.26[b]. Take `CCC(=O)c1ccc(Nc2ncc(Cl)c(NC(C)COC)n2)cc1` (centres unmarked) [Example 104]: under setting [4], the logP is 2.36[b]. As to `CC(C)Nc1nc(Nc2ccc(NC(=O)C(C)C)cc2)ncc1Cl` [Example 209], under setting [2], the logP is 1.61[b]. For `CSc1cccc(Nc2ncc(Cl)c(NCC(C)C)n2)c1` [Example 283], the logP under setting [6] is 2.69[b]. The same measure, in the same setting: next, `CC(C)=CCNc1nc(Nc2ccccc2)ncc1Cl` [Example 289]: 2.17[b].

With `CC(C)Nc1nc(Nc2ccc3cc[nH]c3c2)ncc1Cl` [Example 215], under setting [2], the logP is 1.63[b]. `COCC(C)Nc1nc(Nc2ccc(C)c(NC(C)=O)c2)ncc1Cl` (centres unmarked) [Example 167]: the logP under setting [2] is 1.37[b]. On to `CCN(CC)c1ccc(Nc2ncc(Cl)c(NC(C)COC)n2)cc1` (centres unmarked) [Example 13], for which the logP under setting [1] is 1.16[a]. On to `CC(C)Nc1nc(Nc2ccc(C(=O)N(C)C)cc2)ncc1Br` [Example 245], for which, under setting [6], the logP was 1.54[b]. Turning to `CCN(C)c1nc(Nc2cccc(SC)c2)ncc1Cl` [Example 239], the logP is, setting by setting: under setting [2], 2.99[b]; under setting [5], 4.32[c];. As to `Clc1ncc(Cl)c(NC2CCCCC2)n1` [Example V-18, 2,5-dichloro-N-cyclohexylpyrimidine-4-amine], the chromatographic logP under setting [3] was determined as 3.47. Turning to `CNc1nc(Nc2ccccc2)ncc1Cl` [Example 35], the logP under setting [1] was 1.27[a]. For the setting “pH 2.3, logP [a]”, `CSCC(C)(C)Nc1nc(Cl)ncc1Cl` [Example V-7, 2,5-dichloro-N-[2-methyl-1-(methylsulphanyl)propan-2-yl]pyrimidine-4-amine] showed a chromatographic logP of 3.47. Regarding `CC(NS(=O)(=O)Cc1cccc(N)c1)c1ccccc1` (centres unmarked) [IV-7, 1-(3-aminophenyl)-N-(1-phenylethyl)methanesulphonamide], under setting [3], the chromatographic logP turned out to be 1.53.

For the origin of these results see patent publication US20110230478A1 (Bayer ScienceCrop AG, priority 2008, published 2011).
